# Assay results published in patent publication US20080233561A1, “Method for Measuring Cytopathic Effect Due to Viral Infection in Cells Using Electric Cell-Substrate Impedance Sensing” (UNIVERSITY OF LOUISVILLE RESEARCH FOUNDATION, INC., priority 2005, published 2008).
# Test system: PR8 influenza A virus (influenza/A/PR/8/34 virus)
# Assay type: cell-based
compound,measurement,value
"Cl.N [NH4Cl, ammonium chloride]","CPE in influenza-infected cells, observed with ECIS",Inhibition of CPE in influenza-infected cells
